Assays:
Assay type in all cases: in vivo
[1] = system: Echinochloa crus-galli (ECHCG); experiment: Pre-emergence herbicidal glasshouse test on Echinochloa crus-galli; conditions: pre-emergence; 1000 g/h; evaluated after 13 days
Procedure, shortened: (§1)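 Scored on a five-point scale (1 = 0-19% to 5 = 80-100% damage) 13 days after treatment. Application rate 1000 g/h in acetone/water (50:50) containing 0.5% Tween 20, sprayed one day post-sowing for pre-emergence or eight days for post-emergence; glasshouse at 24/16° C, 14 h light, 65% humidity.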

Setaria faberi (SETFA) [2] = experiment: Pre-emergence herbicidal glasshouse test on Setaria faberi; conditions: pre-emergence; 1000 g/h; evaluated after 13 days
Procedure, shortened: as §1

Solanum nigrum (SOLNI) [3] = experiment: Pre-emergence herbicidal glasshouse test on Solanum nigrum; conditions: pre-emergence; 1000 g/h; evaluated after 13 days
Procedure, shortened: as §1

[4] = system: Amaranthus retoflexus (AMARE); experiment: Post-emergence herbicidal glasshouse test on Amaranthus retoflexus; conditions: post-emergence; 1000 g/h; evaluated after 13 days
Procedure, shortened: as §1

[5] = system: Alopecurus myosuroides (ALOMY); experiment: Pre-emergence herbicidal glasshouse test on Alopecurus myosuroides; conditions: pre-emergence; 1000 g/h; evaluated after 13 days
Procedure, shortened: as §1

[6] = system: Echinochloa crus-galli (ECHCG); experiment: Post-emergence herbicidal glasshouse test on Echinochloa crus-galli; conditions: post-emergence; 1000 g/h; evaluated after 13 days
Procedure, shortened: as §1

Solanum nigrum (SOLNI) [7] = experiment: Post-emergence herbicidal glasshouse test on Solanum nigrum; conditions: post-emergence; 1000 g/h; evaluated after 13 days
Procedure, shortened: as §1

[8] = system: Amaranthus retoflexus (AMARE); experiment: Pre-emergence herbicidal glasshouse test on Amaranthus retoflexus; conditions: pre-emergence; 1000 g/h; evaluated after 13 days
Procedure, shortened: as §1

[9] = system: Ipomoea hederacea (IPOHE); experiment: Pre-emergence herbicidal glasshouse test on Ipomoea hederacea; conditions: pre-emergence; 1000 g/h; evaluated after 13 days
Procedure, shortened: as §1

Setaria faberi (SETFA) [10] = experiment: Post-emergence herbicidal glasshouse test on Setaria faberi; conditions: post-emergence; 1000 g/h; evaluated after 13 days
Procedure, shortened: as §1

[11] = system: Ipomoea hederacea (IPOHE); experiment: Post-emergence herbicidal glasshouse test on Ipomoea hederacea; conditions: post-emergence; 1000 g/h; evaluated after 13 days
Procedure, shortened: as §1

[12] = system: Alopecurus myosuroides (ALOMY); experiment: Post-emergence herbicidal glasshouse test on Alopecurus myosuroides; conditions: post-emergence; 1000 g/h; evaluated after 13 days
Procedure, shortened: as §1

SMILES	PRE Application ECHCG herbicidal damage (five point scale) [1]	PRE Application SETFA herbicidal damage (five point scale) (Setaria faberi (SETFA) [2])	PRE Application SOLNI herbicidal damage (five point scale) (Solanum nigrum (SOLNI) [3])	POST Application AMARE herbicidal damage (five point scale) [4]	PRE Application ALOMY herbicidal damage (five point scale) [5]	POST Application ECHCG herbicidal damage (five point scale) [6]	POST Application SOLNI herbicidal damage (five point scale) (Solanum nigrum (SOLNI) [7])	PRE Application AMARE herbicidal damage (five point scale) [8]	PRE Application IPOHE herbicidal damage (five point scale) [9]	POST Application SETFA herbicidal damage (five point scale) (Setaria faberi (SETFA) [10])	POST Application IPOHE herbicidal damage (five point scale) [11]	POST Application ALOMY herbicidal damage (five point scale) [12]
CCS(=O)(=O)c1nn(C)c(=O)c(O)c1-c1ccc(S(C)(=O)=O)c(C2=NOCC2)c1C [Compound 2.021]	1 (1=0-19% damage)	1 (1=0-19% damage)	1 (1=0-19% damage)	5 (5=80-100% damage)	1 (1=0-19% damage)	5 (5=80-100% damage)	5 (5=80-100% damage)	5 (5=80-100% damage)	1 (1=0-19% damage)	2 (2=20-39% damage)	5 (5=80-100% damage)	1 (1=0-19% damage)
Cn1nc([N+](=O)[O-])c(-c2ccc(C(F)(F)F)cc2S(C)(=O)=O)c(O)c1=O [Compound 2.022]	5 (5=80-100% damage)	4 (4=60-79% damage)	5 (5=80-100% damage)	5 (5=80-100% damage)	5 (5=80-100% damage)	5 (5=80-100% damage)	5 (5=80-100% damage)	5 (5=80-100% damage)	5 (5=80-100% damage)	5 (5=80-100% damage)	5 (5=80-100% damage)	5 (5=80-100% damage)
C=C(C)c1nn(C)c(=O)c(O)c1-c1ccc(S(C)(=O)=O)c(C2=NOCC2)c1C [Compound 2.023]	5 (5=80-100% damage)	1 (1=0-19% damage)	5 (5=80-100% damage)	5 (5=80-100% damage)	5 (5=80-100% damage)	5 (5=80-100% damage)	5 (5=80-100% damage)	5 (5=80-100% damage)	4 (4=60-79% damage)	5 (5=80-100% damage)	5 (5=80-100% damage)	5 (5=80-100% damage)
Cc1c(-c2c(C(C)C)nn(C)c(=O)c2O)ccc(S(C)(=O)=O)c1C1=NOCC1 [Compound 2.024]	5 (5=80-100% damage)	4 (4=60-79% damage)	4 (4=60-79% damage)	5 (5=80-100% damage)	5 (5=80-100% damage)	5 (5=80-100% damage)	5 (5=80-100% damage)	5 (5=80-100% damage)	4 (4=60-79% damage)	5 (5=80-100% damage)	5 (5=80-100% damage)	5 (5=80-100% damage)
Cc1c(-c2c(C#N)nn(C)c(=O)c2O)ccc(S(C)(=O)=O)c1C1=NOCC1 [Compound 2.025]	1 (1=0-19% damage)	1 (1=0-19% damage)	5 (5=80-100% damage)	5 (5=80-100% damage)	1 (1=0-19% damage)	4 (4=60-79% damage)	5 (5=80-100% damage)	5 (5=80-100% damage)	5 (5=80-100% damage)	1 (1=0-19% damage)	4 (4=60-79% damage)	2 (2=20-39% damage)
C#Cc1ccc(-c2cnn(C)c(=O)c2O)c(S(C)(=O)=O)c1 [Compound 2.028]	5 (5=80-100% damage)	4 (4=60-79% damage)	5 (5=80-100% damage)	5 (5=80-100% damage)	5 (5=80-100% damage)	5 (5=80-100% damage)	5 (5=80-100% damage)	5 (5=80-100% damage)	4 (4=60-79% damage)	5 (5=80-100% damage)	5 (5=80-100% damage)	5 (5=80-100% damage)
CC#Cc1ccc(-c2cnn(C)c(=O)c2O)c(S(C)(=O)=O)c1 [Compound 2.029]	5 (5=80-100% damage)	3 (3=40-59% damage)	5 (5=80-100% damage)	5 (5=80-100% damage)	5 (5=80-100% damage)	5 (5=80-100% damage)	5 (5=80-100% damage)	5 (5=80-100% damage)	1 (1=0-19% damage)	5 (5=80-100% damage)	5 (5=80-100% damage)	5 (5=80-100% damage)
Cn1ncc(-c2ccc(OCC(F)(F)F)cc2S(C)(=O)=O)c(O)c1=O [Compound 2.030]	5 (5=80-100% damage)	5 (5=80-100% damage)	5 (5=80-100% damage)	5 (5=80-100% damage)	5 (5=80-100% damage)	5 (5=80-100% damage)	5 (5=80-100% damage)	5 (5=80-100% damage)	4 (4=60-79% damage)	5 (5=80-100% damage)	5 (5=80-100% damage)	5 (5=80-100% damage)
